# From PubChem BioAssay AID434935 (Broad Institute, 2010)
# Inconclusive results are not listed. The source made the active and inactive calls.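 The calls were made as follows: active = EC50 no higher than ten times the top concentration tested; inconclusive = flat fit with growth inhibition between 30% and 70%, or poor fit; inactive = EC50 above ten times the top concentration tested.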
# Tested on: C. albicans CaCi-8 + fluconazole, Alamar Blue growth, 48 h
# Assay: azole-resistant Candida growth inhibition plus fluconazole, SAR follow-up, CaCi-8 strain, Alamar Blue fluorescence (AID 434935)
row,Compound,EC50
1,Cc1nc2ccccc2cc1OCc1ccc(F)cc1,7.27 µM
2,COc1ccc(-n2nc(C(=O)NCC(=O)N3CCN(c4ccccc4)CC3)c3ccccc3c2=O)c(OC)c1,1.17 µM
3,Cc1oc2c(F)c(F)c(F)c(F)c2c1S(=O)(=O)Nc1cccc(C(F)(F)F)c1,9.31 µM
4,Cc1ccc(C(=O)Nc2cccc(-c3cn4ccccc4n3)c2)cc1,2.77 µM
5,CC(C)N1CCc2c(sc(NC(=O)c3nc4ccccc4s3)c2C(N)=O)C1,0.6 µM
6,CCOC(=O)N1C(=O)C2(CCCCC2)N(c2ccc(C)cc2)C1=S,1.36 µM
7,Cc1ccc(Nc2nc(N)c([N+](=O)[O-])c(N3CCC(C)CC3)n2)cc1C,6.15 µM
8,COc1ccc(-c2nnc(NC(=O)c3ccc(F)cc3)o2)cc1,0.146 µM
9,CC(C)COCc1ccc(O)c2ncccc12,7.46 µM
10,Cc1ccc(/C=C/C(=O)c2ccccc(=O)c2O)cc1C,> 26 µM (inactive)
11,CCCC(=O)NC(c1ccccc1)c1ccc2cccnc2c1O (centres undefined),1.11 µM
12,Nc1nccnc1C(=O)Nc1nnc(SCc2ccc(Cl)cc2)s1,1.43 µM
13,COc1cc2c(cc1NC(=O)c1ccco1)CCCC2,< 0.1 µM
14,O=C(Nc1nc(-c2ccccn2)cs1)c1ccc(Br)s1,2.35 µM
15,O=C(Nc1nnc(SCc2ccc(Cl)cc2)s1)c1ccc2ccccc2n1,0.771 µM
16,Cc1ccc(C(=O)c2coc3c2C(=O)C(=O)c2ccccc2-3)cc1,0.226 µM
17,Clc1ccc2c(c1)C(c1cccs1)=NNC(c1cccnc1)=N2,< 0.1 µM
18,O=C(Nc1nnc(-c2ccc3c(c2)CCCC3)o1)c1ccc(Cl)cc1Cl,0.152 µM
19,O=C(NNC1=C(C(=O)C(F)(F)F)CCC1)c1ccc(Cl)cc1,6.84 µM
20,O=C(Nc1sc2c(c1C(=O)c1ccc(Cl)cc1)CCCC2)c1cccnc1,0.938 µM
21,O=C(Nc1nnc(CCc2ccccc2)s1)c1ccco1,3.11 µM
22,O=c1c2cc(Br)ccc2nc(-c2cccc(C(F)(F)F)c2)n1O,3.1 µM
23,CCCC(=O)NC(c1ccc(Cl)cc1)c1ccc2cccnc2c1O (centres undefined),0.607 µM
24,O=C(Oc1c(Cl)cc(Cl)c2cccnc12)c1cccs1,0.192 µM
